Results from patent publication US20140371074A1, “METHOD TO INCREASE PLANT YIELD” (priority 2012, published 2014).

How the values were obtained:
[1] = system: soybean cultivars L2084R2, L2711R2X; experiment: Field 2012: 2,4-D Low Vol 4 + crop oil drizzled onto soil at R1 stage, Alexander, Iowa (Table 2a); type: in vivo
Experimental: Plants were treated by drizzling via low pressure spraying the 2,4-D solution onto the soil along each side of the rows when plants are at the R1 stage of growth. The date of planting was May 15, 2012 and the date of harvest was Oct. 2, 2012 at plots in Alexander, Iowa (Table 2a) and Laurel, Iowa (Table 2b). Plants were grown from Roundup Ready seed and were sprayed with glyphosate for weed control. Plants were treated with between 1X and 5.5X of 2,4-D solution mixed with crop oil at 15.3 ounces of 2,4-D Low Vol 4 plus 0.32 ounces crop oil per gallon, where 1X is equivalent to approximately 0.45 pounds acid equivalent of 2,4-D. Two repetitions were performed at different plots. […] The moisture percentages were used in correcting each yield to a 13% moisture basis.

[2] = system: Soybean variety Latham EX32124 CystX; experiment: Greenhouse: 2,4-D LV4 drizzled onto soil of potted plants, pod and node counts; type: in vivo; conditions: for Average pods per normal node / Megacluster nodes / Normal nodes / Total nodes with pods / Pods on megacluster nodes / Pods on normal nodes / Average pods per megacluster node: 2 plants/pot; for Pods on megacluster nodes / Pods on normal nodes / Total pods per pot (2 plants): immature pods
Experimental: Soybean variety ‘Latham EX32124 CystX’ was planted in 8.5 inch diameter pots and grown under lights in a greenhouse. Four seeds each were planted and later thinned to 2 plants per plot for each of 5 treatment rates of 0.47, 0.94, 1.88, 3.76, and 7.52 pounds a.e. of 2,4-D per acre. […] When the soybean plants were at the stage of growth in which pods are 3/16 inch length at one of the two uppermost nodes, the number of beginning pods was observed.
At this stage, household fertilizer was added to the plants along with water, and the number of nodes and pods was observed approximately ten days later, as shown in Table 3. Pod counts were for 2 plants per pot.

[3] = 1.0X Rate, L2084R2, 1X~0.45 lb a.e.
[4] = 1.0X Rate, L2711R2X, 1X~0.45 lb a.e.
[5] = 1.5X Rate, L2084R2, 1X~0.45 lb a.e.
[6] = 1.5X Rate, L2711R2X, 1X~0.45 lb a.e.
[7] = 2.0X Rate, L2084R2, 1X~0.45 lb a.e.
[8] = 2.0X Rate, L2711R2X, 1X~0.45 lb a.e.
[9] = 2.5X Rate, L2084R2, 1X~0.45 lb a.e.
[10] = 2.5X Rate, L2711R2X, 1X~0.45 lb a.e.
[11] = 3.0X Rate, L2084R2, 1X~0.45 lb a.e.
[12] = 3.0X Rate, L2711R2X, 1X~0.45 lb a.e.
[13] = 3.5X Rate, L2084R2, 1X~0.45 lb a.e.
[14] = 3.5X Rate, L2711R2X, 1X~0.45 lb a.e.
[15] = 4.0X Rate, L2084R2, 1X~0.45 lb a.e.
[16] = 4.0X Rate, L2711R2X, 1X~0.45 lb a.e.
[17] = 4.5X Rate, L2084R2, 1X~0.45 lb a.e.
[18] = 4.5X Rate, L2711R2X, 1X~0.45 lb a.e.
[19] = 5.0X Rate, L2084R2, 1X~0.45 lb a.e.
[20] = 5.0X Rate, L2711R2X, 1X~0.45 lb a.e.
[21] = 5.5X Rate, L2084R2, 1X~0.45 lb a.e.
[22] = 5.5X Rate, L2711R2X, 1X~0.45 lb a.e.
[23] = Average over 1.0X-3.0X Rates, L2084R2
[24] = Average over 1.0X-3.0X Rates, L2711R2X
[25] = Average over 1.0X-5.5X Rates, L2084R2
[26] = Average over 1.0X-5.5X Rates, L2711R2X
[27] = Overall location average, all rates, both cultivars

## O=C(O)COc1ccc(Cl)cc1Cl [2,4-D, 2,4-Dichlorophenoxyacetic acid]
[1]; [3]
  Average Yield: 47.77 Bu/A
  Repetition 1 Weight: 4.3 Lbs
  Repetition 1 Yield: 49.06 Bu/A
  Repetition 2 Weight: 4.1 Lbs
  Repetition 2 Yield: 46.48 Bu/A
[1]; [4]
  Average Yield: 46.66 Bu/A
  Repetition 1 Weight: 3.7 Lbs
  Repetition 1 Yield: 42.30 Bu/A
  Repetition 2 Weight: 4.5 Lbs
  Repetition 2 Yield: 51.02 Bu/A
[1]; [5]
  Average Yield: 47.65 Bu/A
  Repetition 1 Weight: 3.4 Lbs
  Repetition 1 Yield: 38.79 Bu/A
  Repetition 2 Weight: 5 Lbs
  Repetition 2 Yield: 56.51 Bu/A
[1]; [6]
  Average Yield: 52.85 Bu/A
  Repetition 1 Weight: 3.9 Lbs
  Repetition 1 Yield: 44.54 Bu/A
  Repetition 2 Weight: 5.4 Lbs
  Repetition 2 Yield: 61.16 Bu/A
[1]; [7]
  Average Yield: 51.64 Bu/A
  Repetition 1 Weight: 4.5 Lbs
  Repetition 1 Yield: 51.23 Bu/A
  Repetition 2 Weight: 4.6 Lbs
  Repetition 2 Yield: 52.04 Bu/A
[1]; [8]
  Repetition 2 Weight: 4.1 Lbs
  Repetition 2 Yield: 46.43 Bu/A
[1]; 2.0X Rate, L2711R2X, 1X~0.45 lb a.e., repetition 2 only
  Average Yield: 46.43 Bu/A
[1]; [9]
  Average Yield: 38.59 Bu/A
  Repetition 1 Weight: 3.1 Lbs
  Repetition 1 Yield: 35.37 Bu/A
  Repetition 2 Weight: 3.7 Lbs
  Repetition 2 Yield: 41.81 Bu/A
[1]; [10]
  Average Yield: 39.75 Bu/A
  Repetition 1 Weight: 3.1 Lbs
  Repetition 1 Yield: 35.29 Bu/A
  Repetition 2 Weight: 3.9 Lbs
  Repetition 2 Yield: 44.21 Bu/A
[1]; [11]
  Average Yield: 43.14 Bu/A
  Repetition 1 Weight: 3.5 Lbs
  Repetition 1 Yield: 39.89 Bu/A
  Repetition 2 Weight: 4.1 Lbs
  Repetition 2 Yield: 46.38 Bu/A
[1]; [12]
  Average Yield: 45.36 Bu/A
  Repetition 1 Weight: 3.7 Lbs
  Repetition 1 Yield: 42.08 Bu/A
  Repetition 2 Weight: 4.3 Lbs
  Repetition 2 Yield: 48.65 Bu/A
[1]; [13]
  Repetition 1 Weight: 3.4 Lbs
  Repetition 1 Yield: 38.55 Bu/A
[1]; 3.5X Rate, L2084R2, 1X~0.45 lb a.e., repetition 1 only
  Average Yield: 38.55 Bu/A
[1]; [14]
  Repetition 1 Weight: 4.2 Lbs
  Repetition 1 Yield: 47.77 Bu/A
[1]; 3.5X Rate, L2711R2X, 1X~0.45 lb a.e., repetition 1 only
  Average Yield: 47.77 Bu/A
[1]; [15]
  Repetition 1 Weight: 4.5 Lbs
  Repetition 1 Yield: 51.07 Bu/A
[1]; 4.0X Rate, L2084R2, 1X~0.45 lb a.e., repetition 1 only
  Average Yield: 51.07 Bu/A
[1]; [16]
  Repetition 1 Weight: 5.4 Lbs
  Repetition 1 Yield: 61.28 Bu/A
[1]; 4.0X Rate, L2711R2X, 1X~0.45 lb a.e., repetition 1 only
  Average Yield: 61.28 Bu/A
[1]; [17]
  Repetition 1 Weight: 4.7 Lbs
  Repetition 1 Yield: 53.28 Bu/A
[1]; 4.5X Rate, L2084R2, 1X~0.45 lb a.e., repetition 1 only
  Average Yield: 53.28 Bu/A
[1]; [18]
  Repetition 1 Weight: 4.7 Lbs
  Repetition 1 Yield: 53.40 Bu/A
[1]; 4.5X Rate, L2711R2X, 1X~0.45 lb a.e., repetition 1 only
  Average Yield: 53.40 Bu/A
[1]; [19]
  Repetition 1 Weight: 4.1 Lbs
  Repetition 1 Yield: 46.58 Bu/A
[1]; 5.0X Rate, L2084R2, 1X~0.45 lb a.e., repetition 1 only
  Average Yield: 46.58 Bu/A
[1]; [20]
  Repetition 1 Weight: 4.3 Lbs
  Repetition 1 Yield: 48.90 Bu/A
[1]; 5.0X Rate, L2711R2X, 1X~0.45 lb a.e., repetition 1 only
  Average Yield: 48.90 Bu/A
[1]; [21]
  Repetition 1 Weight: 4.2 Lbs
  Repetition 1 Yield: 47.67 Bu/A
[1]; 5.5X Rate, L2084R2, 1X~0.45 lb a.e., repetition 1 only
  Average Yield: 47.67 Bu/A
[1]; [22]
  Repetition 1 Weight: 4.1 Lbs
  Repetition 1 Yield: 46.48 Bu/A
[1]; 5.5X Rate, L2711R2X, 1X~0.45 lb a.e., repetition 1 only
  Average Yield: 46.48 Bu/A
[1]; [23]
  Repetition 2 Weight: 4.3 Lbs
  Repetition 2 Yield: 48.65 Bu/A
[1]; [24]
  Repetition 2 Weight: 4.4 Lbs
  Repetition 2 Yield: 50.29 Bu/A
[1]; [25]
  Average Yield: 46.59 Bu/A
  Repetition 1 Weight: 4.0 Lbs
  Repetition 1 Yield: 45.15 Bu/A
[1]; [26]
  Average Yield: 48.89 Bu/A
  Repetition 1 Weight: 4.1 Lbs
  Repetition 1 Yield: 46.89 Bu/A
[1]; [27]
  Average Yield: 47.74 Bu/A
  Repetition 1 Weight: 4.0 Lbs
  Repetition 1 Yield: 45.97 Bu/A
  Repetition 2 Weight: 4.4 Lbs
  Repetition 2 Yield: 49.47 Bu/A
[1]; Table 2a, 2,4-D mixture 1.0X-5.5X vs untreated
  plant yield (in words): increases plant yield
[2]; 0.47 lbs a.e. per acre
  Beginning pods: Normal
[2]; 0.47 lbs a.e.
  Average pods per normal node: 3.9
  Megacluster nodes: 0
  Normal nodes: 7
  Total nodes with pods: 7
  Pods on megacluster nodes: 0
  Pods on normal nodes: 27
  Total pods per pot (2 plants): 27
[2]; 0.94 lbs a.e. per acre
  Beginning pods: huge clusters of pods (megaclusters)
[2]; 0.94 lbs a.e.
  Average pods per megacluster node: 12.5
  Average pods per normal node: 3.6
  Megacluster nodes: 6
  Normal nodes: 5
  Total nodes with pods: 11
  Pods on megacluster nodes: 75
  Pods on normal nodes: 18
  Total pods per pot (2 plants): 93
[2]; 0.94 pounds a.e. of 2,4-D
  number of pods versus untreated plants: over double the number of pods
[2]; 1.88, 3.76, and 7.52 pounds a.e. of 2,4-D per acre
  total number of pods per plant compared to the control: increased total number of pods per plant
[2]; 1.88 lbs a.e. per acre
  Beginning pods: huge clusters of pods (megaclusters)
[2]; 1.88 lbs a.e.
  Average pods per megacluster node: 6.0
  Average pods per normal node: 3.4
  Megacluster nodes: 5
  Normal nodes: 5
  Total nodes with pods: 10
  Pods on megacluster nodes: 30
  Pods on normal nodes: 17
  Total pods per pot (2 plants): 49
[2]; 3.76 lbs a.e. per acre
  Beginning pods: Normal
[2]; 3.76 lbs a.e.
  Average pods per megacluster node: 9.0
  Average pods per normal node: 4.8
  Megacluster nodes: 3
  Normal nodes: 5
  Total nodes with pods: 8
  Pods on megacluster nodes: 27
  Pods on normal nodes: 24
  Total pods per pot (2 plants): 51
[2]; 7.52 lbs a.e. per acre
  Beginning pods: Normal
[2]; 7.52 lbs a.e.
  Average pods per megacluster node: 9.0
  Average pods per normal node: 3.6
  Megacluster nodes: 2
  Normal nodes: 7
  Total nodes with pods: 9
  Pods on megacluster nodes: 18
  Pods on normal nodes: 25
  Total pods per pot (2 plants): 43
[2]; 7.52 pounds a.e. rate
  leaf damage: some yellowing of leaves
[2]; between 0.47 and 7.52 pounds a.e. of 2,4-D per acre
  pod set: excessive numbers of pods at every node
[2]; treated plants, 0.47-7.52 pounds a.e. per acre
  mature slower and stay greener, longer than untreated plants: approximately 2 weeks
